Experimental data from patent publication US8192962B2, “Processes for detecting toxic substances” (Daikin Industries, Ltd., priority 2001, dated 2012).

System: Metabolism protein genes
Assay: DNA chip mRNA expression in yeast, metabolism protein genes (Table 7)
Format: cell-based, Saccharomyces cerevisiae S288C
Summary of the method: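 Ratios compare mRNA levels in stressed and control S. cerevisiae. Each toxicant was applied for two hours to log-phase cultures at 25° C. at a sub-lethal, growth-inhibiting level; fluorescent cDNA (Cy3- or Cy5-dUTP) was hybridized to a genome-wide yeast chip for over 12 h at 65° C.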

In the case of `S=C([S-])NCCNC(=S)[S-].[Zn+2]` [(11), zinc N,N′-ethylenebis(dithiocarbamate)], the “The level of expressed mRNA in the presence of chemical substance/The level of expressed mRNA in the absence of chemical substance” value (yeast gene YAL012W) is reported as 4.0, the “The level of expressed mRNA in the presence of chemical substance/The level of expressed mRNA in the absence of chemical substance” value (yeast gene YAL038W) is reported as 1.0 and the “level of expressed mRNA in the presence/in the absence of chemical substance” value (yeast gene YBR003W) is reported as 1.3. The “level of expressed mRNA in the presence/in the absence of chemical substance” value (yeast gene YBR011C) was 1.7, the “level of expressed mRNA in the presence/in the absence of chemical substance” value (yeast gene YBR020W) was 1.0 and the “The level of expressed mRNA in the presence of chemical substance/The level of expressed mRNA in the absence of chemical substance” value (yeast gene YBR023C) was 0.9. For the same molecule, the “The level of expressed mRNA in the presence of chemical substance/The level of expressed mRNA in the absence of chemical substance” value (yeast gene YBR029C) was 0.7, the “The level of expressed mRNA in the presence of chemical substance/The level of expressed mRNA in the absence of chemical substance” value (yeast gene YBR183W) was 1.9 and the “The level of expressed mRNA in the presence of chemical substance/The level of expressed mRNA in the absence of chemical substance” value (yeast gene YBR222C) was 1.3. The “The level of expressed mRNA in the presence of chemical substance/The level of expressed mRNA in the absence of chemical substance” value (yeast gene YBR256C) was 3.2, the “The level of expressed mRNA in the presence of chemical substance/The level of expressed mRNA in the absence of chemical substance” value (yeast gene YCL009C) was 1.5 and the “The level of expressed mRNA in the presence of chemical substance/The level of expressed mRNA in the absence of chemical substance” value (yeast gene YCL064C) was 1.8. The “level of expressed mRNA in the presence/in the absence of chemical substance” value (yeast gene YCR010C) was 1.1, the “level of expressed mRNA in the presence/in the absence of chemical substance” value (yeast gene YCR034W) was 0.8 and the “The level of expressed mRNA in the presence of chemical substance/The level of expressed mRNA in the absence of chemical substance” value (yeast gene YCR048W) was 1.2. For the same molecule, the “The level of expressed mRNA in the presence of chemical substance/The level of expressed mRNA in the absence of chemical substance” value (yeast gene YCR098C) was 1.3, the “The level of expressed mRNA in the presence of chemical substance/The level of expressed mRNA in the absence of chemical substance” value (yeast gene YDR019C) was 1.8 and the “level of expressed mRNA in the presence/in the absence of chemical substance” value (yeast gene YDR050C) was 2.0. For the same molecule, the “level of expressed mRNA in the presence/in the absence of chemical substance” value (yeast gene YDR073W) was 1.0, the “level of expressed mRNA in the presence/in the absence of chemical substance” value (yeast gene YDR123C) was 0.6 and the “level of expressed mRNA in the presence/in the absence of chemical substance” value (yeast gene YDR178W) was 2.0. The “level of expressed mRNA in the presence/in the absence of chemical substance” value (yeast gene YDR277C) was 1.2, the “level of expressed mRNA in the presence/in the absence of chemical substance” value (yeast gene YDR284C) was 1.3 and the “level of expressed mRNA in the presence/in the absence of chemical substance” value (yeast gene YDR345C) was 1.5. The “The level of expressed mRNA in the presence of chemical substance/The level of expressed mRNA in the absence of chemical substance” value (yeast gene YDR380W) was 0.4, the “level of expressed mRNA in the presence/in the absence of chemical substance” value (yeast gene YDR400W) was 1.3 and the “level of expressed mRNA in the presence/in the absence of chemical substance” value (yeast gene YDR408C) was 1.7. For the same molecule, the “level of expressed mRNA in the presence/in the absence of chemical substance” value (yeast gene YDR483W) was 1.4, the “The level of expressed mRNA in the presence of chemical substance/The level of expressed mRNA in the absence of chemical substance” value (yeast gene YDR497C) was 0.7 and the “The level of expressed mRNA in the presence of chemical substance/The level of expressed mRNA in the absence of chemical substance” value (yeast gene YDR502C) was 1.3. The “The level of expressed mRNA in the presence of chemical substance/The level of expressed mRNA in the absence of chemical substance” value (yeast gene YDR516C) was 2.8, the “level of expressed mRNA in the presence/in the absence of chemical substance” value (yeast gene YEL063C) was 0.8 and the “level of expressed mRNA in the presence/in the absence of chemical substance” value (yeast gene YER015W) was 1.0. The “The level of expressed mRNA in the presence of chemical substance/The level of expressed mRNA in the absence of chemical substance” value (yeast gene YER026C) was 0.9, the “The level of expressed mRNA in the presence of chemical substance/The level of expressed mRNA in the absence of chemical substance” value (yeast gene YER053C) was 2.4 and the “The level of expressed mRNA in the presence of chemical substance/The level of expressed mRNA in the absence of chemical substance” value (yeast gene YER069W) was 1.5. For the same molecule, the “level of expressed mRNA in the presence/in the absence of chemical substance” value (yeast gene YER081W) was 1.1, the “The level of expressed mRNA in the presence of chemical substance/The level of expressed mRNA in the absence of chemical substance” value (yeast gene YER096W) was 1.1 and the “level of expressed mRNA in the presence/in the absence of chemical substance” value (yeast gene YER120W) was 1.1. The “The level of expressed mRNA in the presence of chemical substance/The level of expressed mRNA in the absence of chemical substance” value (yeast gene YER178W) was 2.5, the “level of expressed mRNA in the presence/in the absence of chemical substance” value (yeast gene YFL011W) was 2.1 and the “The level of expressed mRNA in the presence of chemical substance/The level of expressed mRNA in the absence of chemical substance” value (yeast gene YFL014W) was 5.0. For the same molecule, the “The level of expressed mRNA in the presence of chemical substance/The level of expressed mRNA in the absence of chemical substance” value (yeast gene YFL030W) was 5.4, the “The level of expressed mRNA in the presence of chemical substance/The level of expressed mRNA in the absence of chemical substance” value (yeast gene YFL031W) was 1.2 and the “The level of expressed mRNA in the presence of chemical substance/The level of expressed mRNA in the absence of chemical substance” value (yeast gene YFL056C) was 68.3. The “The level of expressed mRNA in the presence of chemical substance/The level of expressed mRNA in the absence of chemical substance” value (yeast gene YFL057C) was 27.7, the “The level of expressed mRNA in the presence of chemical substance/The level of expressed mRNA in the absence of chemical substance” value (yeast gene YFR015C) was 3.9 and the “The level of expressed mRNA in the presence of chemical substance/The level of expressed mRNA in the absence of chemical substance” value (yeast gene YFR047C) was 2.3. The “level of expressed mRNA in the presence/in the absence of chemical substance” value (yeast gene YGL012W) was 0.6, the “The level of expressed mRNA in the presence of chemical substance/The level of expressed mRNA in the absence of chemical substance” value (yeast gene YGL022W) was 0.8 and the “level of expressed mRNA in the presence/in the absence of chemical substance” value (yeast gene YGL115W) was 1.0. The “The level of expressed mRNA in the presence of chemical substance/The level of expressed mRNA in the absence of chemical substance” value (yeast gene YGL126W) was 1.0, the “level of expressed mRNA in the presence/in the absence of chemical substance” value (yeast gene YGL205W) was 0.4 and the “The level of expressed mRNA in the presence of chemical substance/The level of expressed mRNA in the absence of chemical substance” value (yeast gene YGL209W) was 0.8. For the same molecule, the “The level of expressed mRNA in the presence of chemical substance/The level of expressed mRNA in the absence of chemical substance” value (yeast gene YGL248W) was 1.0, the “The level of expressed mRNA in the presence of chemical substance/The level of expressed mRNA in the absence of chemical substance” value (yeast gene YGR037C) was 1.4 and the “The level of expressed mRNA in the presence of chemical substance/The level of expressed mRNA in the absence of chemical substance” value (yeast gene YGR055W) was 1.5. The “level of expressed mRNA in the presence/in the absence of chemical substance” value (yeast gene YGR096W) was 0.8, the “level of expressed mRNA in the presence/in the absence of chemical substance” value (yeast gene YGR191W) was 1.6 and the “The level of expressed mRNA in the presence of chemical substance/The level of expressed mRNA in the absence of chemical substance” value (yeast gene YGR194C) was 0.7. For the same molecule, the “level of expressed mRNA in the presence/in the absence of chemical substance” value (yeast gene YGR204W) was 2.1, the “The level of expressed mRNA in the presence of chemical substance/The level of expressed mRNA in the absence of chemical substance” value (yeast gene YGR256W) was 2.7 and the “The level of expressed mRNA in the presence of chemical substance/The level of expressed mRNA in the absence of chemical substance” value (yeast gene YGR282C) was 1.5. The “level of expressed mRNA in the presence/in the absence of chemical substance” value (yeast gene YGR288W) was 1.3, the “level of expressed mRNA in the presence/in the absence of chemical substance” value (yeast gene YHR025W) was 2.1 and the “The level of expressed mRNA in the presence of chemical substance/The level of expressed mRNA in the absence of chemical substance” value (yeast gene YHR111W) was 1.9. The “level of expressed mRNA in the presence/in the absence of chemical substance” value (yeast gene YHR123W) was 1.2, the “The level of expressed mRNA in the presence of chemical substance/The level of expressed mRNA in the absence of chemical substance” value (yeast gene YHR137W) was 0.6 and the “The level of expressed mRNA in the presence of chemical substance/The level of expressed mRNA in the absence of chemical substance” value (yeast gene YHR174W) was 1.4. For the same molecule, the “The level of expressed mRNA in the presence of chemical substance/The level of expressed mRNA in the absence of chemical substance” value (yeast gene YHR176W) was 1.2, the “level of expressed mRNA in the presence/in the absence of chemical substance” value (yeast gene YHR210C) was 1.5 and the “level of expressed mRNA in the presence/in the absence of chemical substance” value (yeast gene YIL006W) was 1.0. For the same molecule, the “The level of expressed mRNA in the presence of chemical substance/The level of expressed mRNA in the absence of chemical substance” value (yeast gene YIL045W) was 1.2, the “The level of expressed mRNA in the presence of chemical substance/The level of expressed mRNA in the absence of chemical substance” value (yeast gene YIL107C) was 0.9 and the “The level of expressed mRNA in the presence of chemical substance/The level of expressed mRNA in the absence of chemical substance” value (yeast gene YIL154C) was 1.2. For the same molecule, the “The level of expressed mRNA in the presence of chemical substance/The level of expressed mRNA in the absence of chemical substance” value (yeast gene YIL155C) was 1.3, the “The level of expressed mRNA in the presence of chemical substance/The level of expressed mRNA in the absence of chemical substance” value (yeast gene YIL167W) was 1.9 and the “The level of expressed mRNA in the presence of chemical substance/The level of expressed mRNA in the absence of chemical substance” value (yeast gene YIR017C) was 4.2. For the same molecule, the “The level of expressed mRNA in the presence of chemical substance/The level of expressed mRNA in the absence of chemical substance” value (yeast gene YIR034C) was 3.0, the “The level of expressed mRNA in the presence of chemical substance/The level of expressed mRNA in the absence of chemical substance” value (yeast gene YIR036C) was 2.8 and the “The level of expressed mRNA in the presence of chemical substance/The level of expressed mRNA in the absence of chemical substance” value (yeast gene YJL031C) was 1.9. The “The level of expressed mRNA in the presence of chemical substance/The level of expressed mRNA in the absence of chemical substance” value (yeast gene YJL068C) was 3.2, the “The level of expressed mRNA in the presence of chemical substance/The level of expressed mRNA in the absence of chemical substance” value (yeast gene YJL088W) was 0.9 and the “The level of expressed mRNA in the presence of chemical substance/The level of expressed mRNA in the absence of chemical substance” value (yeast gene YJL099W) was 0.9. For the same molecule, the “level of expressed mRNA in the presence/in the absence of chemical substance” value (yeast gene YJL121C) was 1.1, the “level of expressed mRNA in the presence/in the absence of chemical substance” value (yeast gene YJL167W) was 1.2 and the “The level of expressed mRNA in the presence of chemical substance/The level of expressed mRNA in the absence of chemical substance” value (yeast gene YJL172W) was 1.4. For the same molecule, the “level of expressed mRNA in the presence/in the absence of chemical substance” value (yeast gene YJL216C) was 1.1, the “The level of expressed mRNA in the presence of chemical substance/The level of expressed mRNA in the absence of chemical substance” value (yeast gene YJL219W) was 2.3 and the “level of expressed mRNA in the presence/in the absence of chemical substance” value (yeast gene YJR077C) was 1.6. For the same molecule, the “The level of expressed mRNA in the presence of chemical substance/The level of expressed mRNA in the absence of chemical substance” value (yeast gene YJR137C) was 2.0, the “level of expressed mRNA in the presence/in the absence of chemical substance” value (yeast gene YJR143C) was 1.3 and the “The level of expressed mRNA in the presence of chemical substance/The level of expressed mRNA in the absence of chemical substance” value (yeast gene YJR148W) was 0.6.
